ChEMBL document CHEMBL1123622, “Quantitative structure-activity relationships of the bitter thresholds of amino acids, peptides, and their derivatives” (J Med Chem, 1987)
Non-standard residues stand in square brackets, D forms with d. Residues, ends and D or L forms follow the SMILES beside them.

Test: Bitter threshold value; B denotes 'bitter'
Format: functional

SMILES	Log 1/T
CC[C@H](C)[C@H](NC(=O)[C@H](C)N)C(=O)N[C@@H](C)C(=O)O (H-Ala-Ile-Ala-OH)	Bitter
CC(C)C[C@H](NC(=O)[C@H](C)NC(=O)[C@H](C)N)C(=O)O (H-Ala-Ala-Leu-OH)	Bitter
CC(C)C[C@@H](N)C(=O)NCC(=O)O (H-[dL]-Gly-OH)	Bitter
CC(C)C[C@H](NC(=O)[C@H](C)NC(=O)CN)C(=O)O (H-Gly-Ala-Leu-OH)	Bitter

Test: Bitter threshold value; NI denotes'Not identifiable (Citrous or fruity taste)'
Format: functional

SMILES	Log 1/T
CC(C)[C@H](NC(=O)[C@@H]1CCCN1)C(=O)O (H-Pro-Val-OH)	Not identifiable
O=C(O)CNC(=O)[C@@H]1CCCN1 (H-Pro-Gly-OH)	Not identifiable
